Consider 4 compounds from patent publication US5883133A, “Substituted cinnamic acid guanidides, a process for their preparation, their use as medicaments or diagnostic agents and medicaments comprising them” (priority 1995, dated 1999).

Counter-ions that a name gives are not always drawn. Where only a bound is given, the exact number is not on record here.

Experiment [1] concerns the target T1, Na^+ /H^+ exchanger of rabbit erythrocytes (Oryctolagus cuniculus, UniProt P23791).
T1 construct: exchanger of rabbit erythrocytes; endogenous in cells; host or cells: erythrocytes from ear-artery blood of White New Zealand rabbits (Ivanovas) fed 2% cholesterol for six weeks
Description: Inhibition of the Na+/H+ exchanger of rabbit erythrocytes (amiloride-sensitive sodium influx, flame photometry). The following applies: pH 7.4, 37° C., hyperosmolar salt/sucrose medium. It is filed as cell-based, rabbit (White New Zealand). The source says: Inhibitors of the Na^+ /H^+ exchanger of rabbit erythrocytes:
White New Zealand rabbits (Ivanovas) were given a standard diet with 2% of cholesterol for six weeks in order to activate the Na^+ /H^+ exchange so that the Na^+ influx into the erythrocytes via Na^+ /H^+ exchange can be determined by flame photometry. The blood was taken from the ear arteries and rendered uncoagulable by 25 IU/ml of heparin potassium. A portion of each sample was used for duplication determination of the hematocrit by centrifugation. Aliquots of in each case 100 μl were used for measurement of the initial Na^+ content of the erythrocytes.
To determine the amiloride-sensitive sodium influx, 100 μl of each blood sample were each incubated at pH 7.4 and 37° C. in 5 ml of a hyperosmolar salt/sucrose medium (mmol/l: 140 NaCl, 3 KCl, 150 sucrose, 0.1 ouabain, 20 tris-hydroxymethyl-aminomethane). The erythrocytes were then washed three times with ice-cold MgCl2 /ouabain solution (mmol/l: 112 MgCl2, 0.1 ouabain) and hemolyzed in 2.0 ml of distilled water. The intracellular sodium content was determined by flame photometry.
The net Na^+ influx was calculated from the difference between the initial sodium levels and the sodium content of the erythrocytes after incubation. […]

The next experiment deals with rat hearts. The following applies: isolated rat hearts, cited from earlier work.

T1 sequence (P23791 whole entry): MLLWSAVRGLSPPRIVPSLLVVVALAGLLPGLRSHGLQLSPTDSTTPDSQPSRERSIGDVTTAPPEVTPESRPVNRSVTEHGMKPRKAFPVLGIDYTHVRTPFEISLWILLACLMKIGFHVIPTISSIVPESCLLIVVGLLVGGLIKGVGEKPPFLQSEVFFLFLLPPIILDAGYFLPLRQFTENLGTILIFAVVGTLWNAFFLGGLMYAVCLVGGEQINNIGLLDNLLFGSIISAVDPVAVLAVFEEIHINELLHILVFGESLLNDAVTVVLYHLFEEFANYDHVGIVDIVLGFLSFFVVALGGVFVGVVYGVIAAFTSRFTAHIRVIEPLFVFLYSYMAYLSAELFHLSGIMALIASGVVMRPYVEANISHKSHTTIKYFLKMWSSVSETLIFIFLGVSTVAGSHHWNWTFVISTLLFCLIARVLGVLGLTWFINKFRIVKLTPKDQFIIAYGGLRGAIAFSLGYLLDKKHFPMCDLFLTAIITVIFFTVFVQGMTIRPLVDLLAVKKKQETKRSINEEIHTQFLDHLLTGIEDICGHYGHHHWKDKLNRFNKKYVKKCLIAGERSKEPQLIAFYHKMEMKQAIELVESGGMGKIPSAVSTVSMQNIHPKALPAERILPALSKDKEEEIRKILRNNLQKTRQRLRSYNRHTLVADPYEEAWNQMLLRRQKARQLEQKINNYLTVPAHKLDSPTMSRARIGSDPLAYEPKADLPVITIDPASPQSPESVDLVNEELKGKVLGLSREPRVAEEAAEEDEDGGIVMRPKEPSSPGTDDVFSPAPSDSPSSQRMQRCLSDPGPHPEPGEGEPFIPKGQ

With `C/C(=C\c1ccc(OCCCN(C)C)cc1)C(=O)N=C(N)N` [Example 2, E-3-[4-(3-Dimethylaminopropoxy)phenyl)-2-methyl-propenoic acid guanidide dihydrochloride], the IC50 (commonly the concentration needed to halve the response being measured) in experiment [1] was less than 1000 nM.
Turning to `NC(N)=NC(=O)c1nc(Cl)c(N)nc1N` [amiloride], the “suppression of artificially induced ventricular fibrillation” value with rat hearts (Eur. Heart J. 9 (suppl. 1): 167 (1988)) is given as “suppressed completely”.
With `C/C(=C\c1ccc(N(C)C)cc1)C(=O)N=C(N)N` [Example 1, E-3-(4-Dimethylaminophenyl)-2-methyl-propenoic acid guanidide hydrochloride], the IC50 in experiment [1] is less than 1000 nM.
Take `CCN(c1nc(N)c(C(=O)N=C(N)N)nc1Cl)C(C)C` [ethylisopropylanmiloride, Ethylisopropylamiloride]: the “potency in ventricular fibrillation model relative to amiloride” value in the experiment with rat hearts (compared with amiloride) is reported as “even more potent than amiloride”.
